Measured values published in patent publication US20190241569A1, “3-(ARYL OR HETEROARYL) METHYLENEINDOLIN-2-ONE DERIVATIVES AS INHIBITORS OF CANCER STEM CELL PATHWAY KINASES FOR THE TREATMENT OF CANCER” (Boston Biomedical, Inc., priority 2013, published 2019).

What was measured:
Format in all cases: cell-based
FaDu = assay: Bulk cancer cells, Cell Titer-Glo 72 hours (Test Example 2); settings: Homo sapiens
Experimental: (§1) Tubes of 3× drug (60 uM in 500 uL complete media) were prepared from 5 mM stock solutions in DMSO. […] To treat cells, 50 uL of drug from the dilution plate was removed and added to the cell plates. […] Cells were harvested 72 hours after drug addition using Cell Titer-Glo (Promega) and luminescence measured on a plate reader.

ACHN = assay: as above; settings: Homo sapiens, ACHN, 72 h
Experimental: as §1

FaDu CSC = assay: Cancer stem cells, Cell Titer-Glo 72 hours (Test Example 3); settings: Homo sapiens, FaDu, 72 h

Row | Compound | IC50 (FaDu) [µM] | IC50 (ACHN) [µM] | IC50 (FaDu CSC) [µM]
1 | COc1ccc(-c2ccc3c(c2)/C(=C/c2[nH]c(C)cc2C)C(=O)N3)c(C)c1 [Example 263] | 19.8 | 24.8 | 
2 | Cc1[nH]c(/C=C2\C(=O)Nc3ccc(-c4cnc(-c5ccccc5)[nH]4)cc32)c(C)c1C(=O)N1CCN(C)CC1 [Example 44] | 5.54 |  | 13.2
3 | CCN(CC)CCNC(=O)c1c(C)[nH]c(/C=C2\C(=O)Nc3ccc(-c4nc(-c5ccccc5)n[nH]4)cc32)c1C [Example 50] | 6.16 |  | 2.8
4 | CCN(CC)CCNC(=O)c1c(C)[nH]c(/C=C2\C(=O)Nc3ccc(-c4csc(-c5ccc(Br)cc5)n4)cc32)c1C [Example 125] | 3.68 |  | 1.33
5 | CCN(CC)CCNC(=O)c1c(C)[nH]c(/C=C2\C(=O)Nc3cnc(-c4csc(-c5ccccc5)n4)cc32)c1C [Example 120] | 11.2 |  | 4.75
6 | Cc1[nH]c(/C=C2\C(=O)Nc3ccc(-c4cnn(-c5ccccc5)c4C)cc32)c(C)c1C(=O)NCCN1CCCC1 [Example 28] | 5.79 |  | 1.31
7 | Cc1[nH]c(/C=C2\C(=O)Nc3ccc(-c4cnc(-c5ccccc5)o4)cc32)c(C)c1C(=O)N1CCN(C)CC1 [Example 18] | 12.1 |  | 9.35
8 | CCN(CC)CCNC(=O)c1c(C)[nH]c(/C=C2\C(=O)Nc3ccc(C4CCN(c5ncccn5)CC4)cc32)c1C [Example 43] | 6.47 |  | 18.8
9 | O=C1Nc2ccc(-c3csc(-c4ccccc4)n3)cc2/C1=C/c1[nH]c(C(=O)O)c2c1CCCC2 [Example 163] |  | 24.9 | 4.49
10 | Cc1[nH]c(/C=C2\C(=O)Nc3ccc(-c4cnn(-c5ccccc5)c4C)cc32)c(C)c1C(=O)N1CCOCC1 [Example 13] | 6.76 |  | 37.2
11 | CCN(CC)CCNC(=O)c1c(C)[nH]c(/C=C2\C(=O)Nc3ccc(-c4cs/c(=N\c5ccccc5)n4C)cc32)c1C [Example 132] | 5.35 |  | 2.17
12 | CCN(CC)CCNC(=O)c1[nH]c(/C=C2\C(=O)Nc3ccc(-c4csc(-c5ccccc5)n4)cc32)c2c1CCCC2 [Example 166] |  | 9.91 | 
13 | Cc1[nH]c(/C=C2\C(=O)Nc3ccc(-c4ccnn4-c4ccccc4)cc32)c(C)c1C(=O)N1CCN(C)CC1 [Example 23] | 4.55 |  | 11.5
14 | CCN(CC)CCNC(=O)c1c(C)[nH]c(/C=C2\C(=O)Nc3ccc(-c4nnc(-c5ccccc5)o4)cc32)c1C [Example 53] | 8.23 |  | 21.5
15 | Cc1[nH]c(/C=C2\C(=O)Nc3ccc(-c4ccc(-c5ccccc5)s4)cc32)c(C)c1C(=O)NCCN1CCCC1 [Example 14] | 4.44 |  | 1.64

The next lines start with the values.

Row | IC50 (FaDu) [µM] | IC50 (ACHN) [µM] | IC50 (FaDu CSC) [µM] | Compound
16 | 19.4 | 20.6 |  | Cc1cc(C)c(/C=C2\C(=O)Nc3cc(-c4cnc5ccccn45)ccc32)[nH]1 [Example 247]
17 | 5.34 | 20.6 |  | CCN(CC)CCNC(=O)c1c(C)[nH]c(/C=C2\C(=O)Nc3ccc(-c4cnc(-c5ccccc5)[nH]4)cc32)c1C [Example 41]
18 |  | 14.6 |  | Cc1[nH]c(/C=C2\C(=O)Nc3ccc(-c4csc(-c5ccncc5)n4)cc32)c(C)c1CCC(=O)O [Example 154]
19 | 23.2 |  | 15.6 | CC(=O)N1CCC(N2CCC(c3ccc4c(c3)/C(=C/c3[nH]c(C)c(C(=O)N5CCN(C)CC5)c3C)C(=O)N4)CC2)CC1 [Example 46]
20 | 17.3 |  | 4.96 | CCN(CC)CCNC(=O)c1c(C)[nH]c(/C=C2\C(=O)Nc3ccc(-c4ccnn4-c4ccc(C#N)cc4)cc32)c1C [Example 25]
21 | 24.8 |  | 7.82 | CCN(CC)CCNC(=O)c1c(C)[nH]c(/C=C2\C(=O)Nc3ccc(-c4csc(-c5cccc(Br)c5)n4)cc32)c1C [Example 127]
22 | 22.4 | 21.8 |  | Cc1cc(C)c(/C=C2\C(=O)Nc3ccc(-c4ccc(C(=O)c5ccccc5)cc4)cc32)[nH]1 [Example 260]
23 |  | 7.44 |  | Cc1cc(C)c(/C=C2\C(=O)Nc3ccc(-c4ccc5ccccc5n4)cc32)[nH]1 [Example 214]
